Entries after “also recorded” stand apart in the source; their conditions may differ.
Experiments:
loperamide-treated mice = assay: Loperamide-induced mouse model of constipation (3-h stool weight, pellet number, water content)
[1] = 7-day oral toxicity study in mice (blood count, serum chemistry, body weight, lung wet/dry weight); assay type: in vivo, mouse
From the text: Chronic administration and toxicity studies.

cAMP = cAMP GloSensor luminescence assay in FRT cells; assay type: cell-based, rat
Experimental: Intracellular cAMP activity was measured using a GloSensor luminescence assay (Promega Corp., Madison, Wis., USA). FRT null cells were stably transfected with the pGloSensor cAMP plasmid and plated onto white 96-well microplates and grown to confluence. Cells were washed three times with PBS and incubated with 5 μM CFTRact-J027 for 10 min in the absence and presence of 100 nM forskolin. cAMP was assayed according to the manufacturer's instructions.
Intracellular cAMP activity was measured using a GloSensor luminescence assay (Promega Corp., Madison, Wis., USA). FRT cells stably transfected with the pGloSensor cAMP plasmid (Promega Corp.) were cultured in white 96-well microplates (Corning Costar) overnight. Cells were then washed three times with PBS and incubated with 5 μM test compound for 10 min in the absence and presence of 100 nM forskolin.
cAMP assay. Intracellular cAMP activity was measured using a GloSensor luminescence assay (Promega Corp., Madison, Wis., USA). FRT null cells were stably transfected with the pGloSensor cAMP plasmid and plated onto white 96-well microplates and grown to confluence. […]
cAMP and cytotoxicity assays. Intracellular cAMP activity was measured using a GloSensor luminescence assay (Promega Corp., Madison, Wis., USA). […]

[2] = test system: BALB/c mice after lacrimal gland excision; assay: Lacrimal gland excision (LGE) mouse model of aqueous-deficient dry eye; assay type: in vivo
Experimental: To assess corneal epithelial disruption, 5 μL of lissamine green (LG) dye (1%) was applied to the ocular surface of isofluorane-anesthetized mice. Photographs of the eye were taken using a Nikon Digital camera adapted to an Olympus Zoom Stereo Microscope (Olympus, Center Valley, Pa., USA). Each corneal quadrant was scored on a 3-point scale by one blinded, trained observer, with the extent of staining in each quadrant classified as: 0, no staining; 1, sporadic (involving <25% of the total surface) staining; grade 2, diffuse punctate staining (25-75%); and grade 3, coalesced punctate staining (≥75%). The total grade is reported as the sum of scores from all four quadrants, ranging from 0 to 12.
A lacrimal gland excision (LGE) model of aqueous-deficient dry eye was adapted from a reported method (30). The extraorbital lacrimal gland was exposed on each side of wild-type female BALB/c mice (7-8 weeks of age) by 3-mm linear skin incisions. Lacrimal ducts were cauterized and the entire gland was removed bilaterally, avoiding facial vessels and nerves. Incisions were each closed with a single interrupted 6-0 silk suture. Orbital lacrimal tissue remained functional. Eyes with reduced corneal sensation (<5% of mice studied), as identified from neurotrophic corneal ulcers within 1 day of LGE, were excluded. Mice were randomized to receive either treatment (in both eyes) with CFTRact-K089 (0.1 nmol) or vehicle. Mice were treated three times daily (8 AM, 2 PM and 8 PM) for 2 weeks starting on Day 1 after LGE. Tear secretion and LG staining were performed immediately prior to, and one hour after the initial dose on day 4, 10 and 14 after LGE.
Lissamine green staining. […] Each corneal quadrant was scored on a 3-point scale by one blinded, trained observer, with the extent of staining in each quadrant classified as: 0, no staining; 1, sporadic (involving <25% of the total surface) staining; grade 2, diffuse punctate staining (25-75%); and grade 3, coalesced punctate staining (≥75%). […]

[3] = 10 mg/kg oral once per day, 7 days
[4] = 0.1 nmol topical three times daily

In the case of `Nc1ccc([N+](=O)[O-])cc1-c1nc2ccccc2n(Cc2ccccc2)c1=O` [CFTRact-J027, 3-(2-amino-5-nitrophenyl)-1-benzylquinoxalin-2(1H)-one], the “stool weight, pellet number, water content” value (loperamide-treated mice; 10 mg/kg ip, loperamide-treated mice) is reported as “normalized each of the stool parameters”, the “efficacy after chronic administration” value (loperamide-treated mice; 10 mg/kg oral daily for 7 days, loperamide 1 h after final dose) is reported as “remained effective in normalizing stool output and water content” and the “effect on stool parameters in cystic fibrosis mice” value (loperamide-treated mice; CF mice lacking functional CFTR) is reported as “without effect”. For the same molecule, the “stool output or water content in control mice” value (loperamide-treated mice; ip, non-loperamide-treated mice) was “did not affect stool output or water content”, the “stool output, oral, control mice” value (loperamide-treated mice; oral 10 mg/kg, control mice) was “no effect” and the “stool output and water content, oral administration” value (loperamide-treated mice; oral (10 mg/kg) 1 h before loperamide, 10 mg/kg) was “normalized stool output and water content; also recorded: effective in normalizing stool output and water content”. For the same molecule, the “ED50, oral administration” value (loperamide-treated mice; oral, loperamide model) was 0.5 mg/kg, the “toxicity after chronic administration” value ([1]; 10 mg/kg oral) was “without apparent toxicity” and the ALP [1, 3] was 53 ± 2.5 U/L. The ALT [1, 3] was 44 ± 6 U/L, the AST [1, 3] was 105 ± 11 U/L and the Albumin [1, 3] was 2.9 ± 0.03 g/dL. It also gave a BUN [1, 3] of 18.4 ± 1.2 mg/dL, a Bicarbonate [1, 3] of 16 ± 1.7 mmol/L and a CK [1, 3] of 312 ± 62 U/L. It also gave a Calcium [1, 3] of 8.5 ± 0.04 mg/dL, a Chloride [1, 3] of 115 ± 1 mmol/L and a Cholesterol [1, 3] of 121 ± 6 mg/dL. The Creatinine [1, 3] was 0.2 ± 0 mg/dL, the Globulin [1, 3] was 2.2 ± 0.1 g/dL and the Glucose [1, 3] was 164 ± 6 mg/dL. The Hemoglobin [1, 3] was 12.8 ± 0.3 g/dL, the Leukocytes [1, 3] was 1.9 ± 0.5 10^3/μL and the Phosphorus [1, 3] was 6.8 ± 0.3 mg/dL. The Potassium [1, 3] was 4.4 ± 0.1 mmol/L, the Sodium [1, 3] was 151 ± 0.7 mmol/L and the Thrombocytes [1, 3] was 900 ± 48 10^3/μL. For the same molecule, the Total bilirubin [1, 3] was 0.1 ± 0 mg/dL, the Total protein [1, 3] was 5.2 ± 0.1 g/dL and the “body weight and airway/lung fluid accumulation” value ([1]; 7-day treated mice) was “nor did it change body weight or produce airway/lung fluid accumulation”. The lung water content ([1]; 7-day treated mice) was “normal lung water content”, the “serum chemistry and blood parameters, in words” value ([1]; 7-day treated mice) was “did not affect the major serum chemistry and blood parameters” and the “cellular cAMP, added together with forskolin” value (cAMP; 5 μM + 100 nM forskolin) was “does not further increase cAMP”. For the same molecule, the “cellular cAMP, compound alone” value (cAMP; 5 μM, 10 min) was “without causing elevation of cytoplasmic cAMP; also recorded: does not elevate cellular cAMP”.

For `CCN(CC)c1nc(Nc2ccccc2)nc(OC(C(F)(F)F)C(F)(F)F)n1` [CFTRact-K089, N,N-Diethyl-6-[(1,1,1,3,3,3-hexafluoropropan-2-yl)oxy]-N′-phenyl-1,3,5-triazine-2,4-diamine], the LG score change ([2]; 0.1 nmol three times daily, by Day 14, 12-point scale) was −0.6±0.6, the “corneal / ocular surface epithelial disruption after LGE” value [2, 4] was “fully prevented the corneal epithelial disruption; also recorded: prevented ocular surface epithelial disruption at all time points” and the “tear secretion / tear volume after LGE” value [2, 4] was “restored tear secretion to basal levels; also recorded: maintained basal tear volume”.

From patent US11230535B2, “CFTR regulators and methods of use thereof” (THE REGENTS OF THE UNIVERSITY OF CALIFORNIA, priority 2015, dated 2022)
